According to patent publication US20260273072A1, “NOVEL PLK1 DEGRADATION INDUCING COMPOUND” (UPPTHERA, INC., priority 2023, published 2026):

What was measured:
Type in all cases: cell-based
PLK1 = molecular target: T1, PLK1 (Homo sapiens, UniProt P53350); experiment: Luciferase assay for PLK1 in HeLa LgBit (Plk1-HiBit KI) cell line; conditions: 300 nM compound, luminescence after 9 hours
T1 construct: endogenous in cells; host or cells: HeLa LgBit (Plk1-HiBit KI): HeLa stably expressing LgBit, with a CRISPR/Cas9 knock-in of HiBit at the endogenous PLK1 locus
T1 sequence (P53350 whole entry): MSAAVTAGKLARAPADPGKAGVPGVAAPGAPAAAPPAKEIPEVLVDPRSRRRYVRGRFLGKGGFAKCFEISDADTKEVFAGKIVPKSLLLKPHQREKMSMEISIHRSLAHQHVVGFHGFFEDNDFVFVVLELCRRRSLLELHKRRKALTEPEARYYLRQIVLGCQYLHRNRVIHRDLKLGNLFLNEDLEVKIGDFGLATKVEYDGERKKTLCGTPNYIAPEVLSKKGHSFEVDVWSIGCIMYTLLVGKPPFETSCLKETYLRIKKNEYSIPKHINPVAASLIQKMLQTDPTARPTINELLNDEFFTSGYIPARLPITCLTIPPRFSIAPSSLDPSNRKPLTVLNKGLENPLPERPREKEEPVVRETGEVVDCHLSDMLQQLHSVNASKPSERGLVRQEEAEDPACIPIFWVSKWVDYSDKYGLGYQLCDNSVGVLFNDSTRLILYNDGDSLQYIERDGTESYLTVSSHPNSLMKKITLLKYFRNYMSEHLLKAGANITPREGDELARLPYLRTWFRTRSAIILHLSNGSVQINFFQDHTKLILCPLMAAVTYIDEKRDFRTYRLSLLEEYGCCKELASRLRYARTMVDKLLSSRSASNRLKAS
How it was run: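 Compounds (300 nM) were added with Endurazine to thymidine-synchronised cells (2 mM, 24 h block, then release and 18 h culture), and luminescence at 470-480 nm was followed live. Cells: HeLa stably expressing LgBit, HiBit knocked into native PLK1 C-terminus. Value: luminescence ratio versus DMSO control.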

NCI-H526 cell line = experiment: Cell viability assay for NCI-H526 cell line (EZ-Cytox); conditions: Homo sapiens, NCI-H526, 120 h; H526 cells, 5 days, 3000 nM to 0.46 nM
How it was run: (§1)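 IC50 values are binned (A: <30 nM, B: <50 nM, C: <100 nM, D: <200 nM, E: <400 nM) from EZ-Cytox read-outs. Cells were exposed to compound for 5 days, then shaken 3 min and absorbance taken at […].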

NCI-H69 cell line = experiment: Cell viability assay for NCI-H69 cell line (EZ-Cytox); conditions: Homo sapiens, NCI-H69, 120 h; H69 cells, 5 days, 3000 nM to 0.46 nM
How it was run: as §1

MRC-5 cell line = experiment: Cell viability assay for MRC-5 cell line (EZ-Cytox); conditions: Homo sapiens, MRC5, 120 h; MRC-5 normal cell line, 5 days, 10000 nM to 1.52 nM; read-out: Activity: IC50 value, cell viability, MRC-5 cell line (Exemplary Compounds)
Procedure: 4. Cell Viability Assay for MRC-5 Cell Line
(1) Culture of MRC-5 Cell Line
The MRC-5 cell line was purchased from KCLB. Passage of cultured cells was maintained within P15.
(2) Treatment of Compounds of the Present Invention
Then, it was cultured in 37° C. CO2 incubator (Thermo Fisher Scientific) for 5 days.
(3) Cytotoxicity Experiment
CO2 incubator for 4 hours.

Row | SMILES | Activity: ratio of the luminescence value of compound treatment group to DMSO treatment group (PLK1) | IC50 (NCI-H526 cell line) [nM] | IC50 (NCI-H69 cell line) [nM] | IC50 (MRC-5 cell line) [nM]
1 | COc1cc(C(=O)NC2CCN(CCN3CCN(c4cc(OC)c(NC5CCC(=O)NC5=O)cc4F)CC3)CC2)c(F)cc1Nc1ncc2c(n1)N(C1CCCC1)CC(F)(F)C(=O)N2C (stereo not shown) [Compound 49, 4-((9-cyclopentyl-7,7-difluoro-5-methyl-6-oxo-6,7,8,9-tetrahydro-5H-pyrimido[4,5-b][1,4]diazepin-2-yl)amino)-N-(1-(2-(4-(4-((2,6-dioxopiperidin-3-yl)amino)-2-fluoro-5-methoxyphenyl)piperazin-1-yl)ethyl)piperidin-4-yl)-2-fluoro-5-methoxybenz amide] | ++ (++: <0.5) | < 30 | < 50 | > 10000
2 | COc1cc(C(=O)NC2CCN(CCN3CCN(c4cc(F)c(NC5CCC(=O)NC5=O)cc4F)CC3)CC2)ccc1Nc1ncc2c(n1)N(C1CCCC1)CC(F)(F)C(=O)N2C (stereo not shown) [Compound 67, 4-((9-cyclopentyl-7,7-difluoro-5-methyl-6-oxo-6,7,8,9-tetrahydro-5H-pyrimido[4,5-b][1,4]diazepin-2-yl)amino)-N-(1-(2-(4-(4-((2,6-dioxopiperidin-3-yl)amino)-2,5-difluorophenyl)piperazin-1-yl)ethyl)piperidin-4-yl)-3-methoxybenzamide] | ++ (++: <0.5) | < 30 | < 30 | > 10000
3 | COc1cc(C(=O)NC2CC3(CCN(CC4CCN(c5cc(OC)c(NC6CCC(=O)NC6=O)cc5F)CC4)CC3)C2)c(F)cc1Nc1ncc2c(n1)N(C(C)C)CC(F)(F)C(=O)N2C (stereo not shown) [Compound 52, 4-((7,7-difluoro-9-isopropyl-5-methyl-6-oxo-6,7,8,9-tetrahydro-5H-pyrimido[4,5-b][1,4]diazepin-2-yl)amino)-N-(7-((1-(4-((2,6-dioxopiperidin-3-yl)amino)-2-fluoro-5-methoxyphenyl)piperidin-4-yl)methyl)-7-azaspiro[3.5]nonan-2-yl)-2-fluoro-5-methoxybenzamide] | ++ (++: <0.5) | < 30 | < 30 | > 10000
4 | COc1cc(C(=O)N[C@H]2[C@@H]3CN(CCN4CCN(c5ccc(NC6CCC(=O)NC6=O)cc5)CC4)C[C@@H]32)ccc1Nc1ncc2c(n1)N(C(C)C)CC(F)(F)C(=O)N2C (stereo partly drawn) [Compound 23, 4-((7,7-difluoro-9-isopropyl-5-methyl-6-oxo-6,7,8,9-tetrahydro-5H-pyrimido[4,5-b][1,4]diazepin-2-yl)amino)-N-((1R,5S,6s)-3-(2-(4-(4-((2,6-dioxopiperidin-3-yl)amino)phenyl)piperazin-1-yl)ethyl)-3-azabicyclo[3.1.0]hexan-6-yl)-3-methoxybenzamide] | ++ (++: <0.5) | < 30 | < 50 | > 10000
5 | COc1cc(C(=O)N[C@H]2C3CN(CC4CCN(c5ccc(NC6CCC(=O)NC6=O)cc5)CC4)C[C@@H]32)ccc1Nc1ncc2c(n1)N(C(C)C)CC(F)(F)C(=O)N2C (stereo partly drawn) [Compound 22, 4-((7,7-difluoro-9-isopropyl-5-methyl-6-oxo-6,7,8,9-tetrahydro-5H-pyrimido[4,5-b][1,4]diazepin-2-yl)amino)-N-((1R,5S,6s)-3-((1-(4-((2,6-dioxopiperidin-3-yl)amino)phenyl)piperidin-4-yl)methyl)-3-azabicyclo[3.1.0]hexan-6-yl)-3-methoxybenzamide] | +++ (+++: <0.3) | < 50 | < 50 | > 10000
6 | COc1cc(C(=O)N[C@H]2[C@@H]3CN(CCC4CCN(c5ccc(NC6CCC(=O)NC6=O)cc5)CC4)C[C@@H]32)ccc1Nc1ncc2c(n1)N(C(C)C)CC(F)(F)C(=O)N2C (stereo partly drawn) [Compound 24, 4-((7,7-difluoro-9-isopropyl-5-methyl-6-oxo-6,7,8,9-tetrahydro-5H-pyrimido[4,5-b][1,4]diazepin-2-yl)amino)-N-((1R,5S,6s)-3-(2-(1-(4-((2,6-dioxopiperidin-3-yl)amino)phenyl)piperidin-4-yl)ethyl)-3-azabicyclo[3.1.0]hexan-6-yl)-3-methoxybenzamide] | ++ (++: <0.5) | < 50 | < 100 | > 10000

Now from value to compound, other results behind:

Row | Activity: ratio of the luminescence value of compound treatment group to DMSO treatment group (PLK1) | SMILES | IC50 (NCI-H526 cell line) [nM] | IC50 (NCI-H69 cell line) [nM] | IC50 (MRC-5 cell line) [nM]
7 | ++ (++: <0.5) | CCN1CC(F)(F)C(=O)N(C)c2cnc(Nc3cc(F)c(C(=O)NN4CCC(CCN5CCN(c6ccc(NC7CCC(=O)NC7=O)c(F)c6)CC5)CC4)cc3OC)nc21 (stereo not shown) [Compound 35, N(4-(2-(4-(4-((2,6-dioxopiperidin-3-yl)amino)-3-fluorophenyl)piperazin-1-yl)ethyl)piperidin-1-yl)-4-((9-ethyl-7,7-difluoro-5-methyl-6-oxo-6,7,8,9-tetrahydro-5H-pyrimido[4,5-b][1,4]diazepin-2-yl)amino)-2-fluoro-5-methoxybenzamide] | < 30 | < 50 | > 10000
8 | ++ (++: <0.5) | COc1cc(C(=O)NN2CCC(CCN3CCN(c4cc(OC)c(C5CCC(=O)NC5=O)cc4F)CC3)CC2)ccc1Nc1ncc2c(n1)N(C(C)C)CC(F)(F)C(=O)N2C (stereo not shown) [Compound 7, 4-((7,7-difluoro-9-isopropyl-5-methyl-6-oxo-6,7,8,9-tetrahydro-5H-pyrimido[4,5-b][1,4]diazepin-2-yl)amino)-N-(4-(2-(4-(4-(2,6-dioxopiperidin-3-yl)-2-fluoro-5-methoxyphenyl)piperazin-1-yl)ethyl)piperidin-1-yl)-3-methoxybenzamide] | < 50 | < 50 | > 10000
9 | ++ (++: <0.5) | COc1cc(C(=O)NN2CCC(CCN3CCN(c4ccc(NC5CCC(=O)NC5=O)c(F)c4)CC3)CC2)ccc1Nc1ncc2c(n1)N(C(C)C)CC(F)(F)C(=O)N2C (stereo not shown) [Compound 33, 4-((7,7-difluoro-9-isopropyl-5-methyl-6-oxo-6,7,8,9-tetrahydro-5H-pyrimido[4,5-b][1,4]diazepin-2-yl)amino)-N-(4-(2-(4-(4-((2,6-dioxopiperidin-3-yl)amino)-3-fluorophenyl)piperazin-1-yl)ethyl)piperidin-1-yl)-3-methoxybenzamide] | < 30 | < 30 | > 10000
10 | ++ (++: <0.5) | COc1cc(C(=O)NC2CCN(CCC3CCN(c4cc(OC)c(NC5CCC(=O)NC5=O)cc4F)CC3)CC2)c(F)cc1Nc1ncc2c(n1)N(C(C)C)CC(F)(F)C(=O)N2C (stereo not shown) [Compound 50, 4-((7,7-difluoro-9-isopropyl-5-methyl-6-oxo-6,7,8,9-tetrahydro-5H-pyrimido[4,5-b][1,4]diazepin-2-yl)amino)-N-(1-(2-(1-(4-((2,6-dioxopiperidin-3-yl)amino)-2-fluoro-5-methoxyphenyl)piperidin-4-yl)ethyl)piperidin-4-yl)-2-fluoro-5-methoxybenzamide] | < 50 | < 100 | > 10000
11 | ++ (++: <0.5) | COc1cc(C(=O)NN2C[C@@H]3[C@@H](CCN4CCN(c5ccc(NC6CCC(=O)NC6=O)cc5)CC4)[C@@H]3C2)ccc1Nc1ncc2c(n1)N(C(C)C)CC(F)(F)C(=O)N2C (stereo partly drawn) [Compound 25, 4-((7,7-difluoro-9-isopropyl-5-methyl-6-oxo-6,7,8,9-tetrahydro-5H-pyrimido[4,5-b][1,4]diazepin-2-yl)amino)-N-((1R,5S,6s)-6-(2-(4-(4-((2,6-dioxopiperidin-3-yl)amino)phenyl)piperazin-1-yl)ethyl)-3-azabicyclo[3.1.0]hexan-3-yl)-3-methoxybenzamide] | < 30 | < 100 | > 10000
12 | +++ (+++: <0.3) | COc1cc(C(=O)NN2CCC(CCN3CCN(c4cnc(C5CCC(=O)NC5=O)cc4F)CC3)CC2)ccc1Nc1ncc2c(n1)N(C(C)C)CC(F)(F)C(=O)N2C (stereo not shown) [Compound 21, 4-((7,7-difluoro-9-isopropyl-5-methyl-6-oxo-6,7,8,9-tetrahydro-5H-pyrimido[4,5-b][1,4]diazepin-2-yl)amino)-N-(4-(2-(4-(6-(2,6-dioxopiperidin-3-yl)-4-fluoropyridin-3-yl)piperazin-1-yl)ethyl)piperidin-1-yl)-3-methoxybenzamide] | < 30 | < 30 | > 10000
13 | ++ (++: <0.5) | COc1cc(C(=O)NN2CCC(CCN3CCN(c4ccc(NC5CCC(=O)NC5=O)c(F)c4)CC3)CC2)ccc1Nc1ncc2c(n1)N(C1CCCC1)CC(F)(F)C(=O)N2C (stereo not shown) [Compound 34, 4-((9-cyclopentyl-7,7-difluoro-5-methyl-6-oxo-6,7,8,9-tetrahydro-5H-pyrimido[4,5-b][1,4]diazepin-2-yl)amino)-N-(4-(2-(4-(4-((2,6-dioxopiperidin-3-yl)amino)-3-fluorophenyl)piperazin-1-yl)ethyl)piperidin-1-yl)-3-methoxybenzamide] | < 30 | < 30 | > 10000
